Experimental data: PMC7412561, “Conjugates of Chitosan and Calcium Alginate with Oligoproline and Oligohydroxyproline Derivatives for Potential Use in Regenerative Medicine” (Materials, 2020)
Non-standard residues stand in square brackets, D forms with d. Hyp = O=C(O)[C@@H]1C[C@@H](O)CN1

These substances were tested on endothelial cell line EA.hy 926 (assay: MTT test (cell metabolic activity / cytotoxicity)). Settings: EA.h 926 cells incubated with peptide for 1 day and for 7 days; concentration range 10 μM to 10 mM; compared with Control− (medium only); five replicates, average.
Type: cell-based
Method: The endothelial cell line EA.hy 926 (ATCC, Manassas, VA, USA) was used. The MTT test was performed using endothelial cells of the EA.hy 926 line. The extracts (2 mg/mL) were incubated in DMEM (Corning) for 48 h at 37 °C. Cells were seeded into a 96-well plate with 1 × 10^4 cells per well and grown under standard conditions (37 °C, 5% CO2 in humid air). The next day, the medium was replaced with extracts. After 24 h of treatment, the culture medium was removed and replaced with the MTT solution (1 mg/mL, Sigma Aldrich, Poznan, Poland) and incubated for 2 h in an incubator. The MTT solution was then decanted and 100 µL of isopropanol (Sigma Aldrich, Poznan, Poland) was added to each well. Absorbance was measured at 570 nm and 650 nm for the reference using a microplate reader (Victor X4 Perkin Elmer, PerkinElmer, Inc. Waltham, MA, USA). Cells cultured for 48 h in DMEM were used as a negative control. As a positive control were used cells incubated for 24 h, followed by the addition of DMSO, which were then cultured for another 24 h. Three samples of each type were tested and the results were presented as a percentage of the negative control with the standard deviation. Statistical significance was assessed using one-way ANOVA analysis of variance. Values for which the value **p < 0.001, ** p < 0.01, *p < 0.05 were considered statistically significant.
All the peptides were also assessed in terms of their cytotoxicity against the endothelial cell line EA.h 926. No cytotoxicity was observed (Figure 6) both for incubating cells in the presence of peptides 1–5 for 1 day (Figure 6a) and for 7 days (Figure 6b). Cells cultured in medium without the addition of any substances or harmful agents were used as the Control^− (K^−), while cells treated with DMSO on the second day of incubation were used as the Control^+ (K^+). The dimethyl sulfoxide (DMSO) was added to a final concentration of 5%. An MTT test was used to assess the cytotoxicity of peptides 1–5. […] The tests were performed in the concentration range of 10 μM and 10 mM.
Figure 6 Results of cell metabolic activity by using 3-(4,5-dimethylthiazol-2-yl)-2,5-diphenyltetrazolium bromide (MTT test) of the endothelial cell line EA.h 926 cultured in the presence of peptides 1–5, panel (a)—cells incubated in the presence of peptides for 1 day, panel (b)—cells incubated in the presence of peptides for 7 days. Cytotoxicity tests were performed in five replicates. The presented results are average values. Statistical significance was assessed using one-way ANOVA analysis of variance. Values for which the value **p < 0.001, ** p < 0.01, *p < 0.05 were considered statistically significant (see Supplementary Materials, Figure S1).
In the final stage of the research, we studied the effects of covalently linked conjugates of peptides 2‒5 with chitosan and alginate (Figure 10) on the endothelial cell line EA.hy 926. Experiments were performed for incubation of cells for 1 day (Figure 10a) and 7 days (Figure 10b) to check the effect of alginate and chitosan conjugates with peptides 2‒5 both in the short and long term, which is important from the point of view of the usefulness of materials used in regenerative medicine. As the Control^‒ (K^‒) were again used cells cultured in the medium without the addition of any substances or any harmful factors, while as the Control^+ (K^+) were used cell cultures killed by adding DMSO on the second day of incubation. DMSO was added to give a 5% final concentration in the culture medium. Unmodified chitosan and calcium alginate were also studied. […] Cell viability relative to the […] was reduced by more than 75%. The adverse effect of calcium alginate on the endothelial cell line EA.hy 926 may result from the exchange of Ca^2+ ions from the polysaccharide matrix for monovalent Na^+ and/or K^+ ions, causing the release of large amounts of Ca^2+ ions into the culture medium. This in turn may adversely affect the endothelial cells. […]
In the case of H-(Pro)9-OH [Peptide 3], the “cytotoxic effect of peptides (MTT test)” value is reported as “No cytotoxic effect”. For H-(Hyp)6-OH [Peptide 4], the “cytotoxic effect of peptides (MTT test)” value was “No cytotoxic effect”. In the case of H-(Pro)6-OH [Peptide 2], the “cytotoxic effect of peptides (MTT test)” value is reported as “No cytotoxic effect”. For “H-G[Hyp]PA[Hyp]P-OH (SMILES C[C@H](NC(=O)[C@@H]1CCCN1C(=O)[C@@H]1C[C@@H](O)CN1C(=O)CN)C(=O)N1C[C@H](O)C[C@H]1C(=O)N1CCC[C@H]1C(=O)O) [Peptide 1, model collagen fragment, reference compound]”, the “cytotoxic effect of peptides (MTT test)” value was “No cytotoxic effect”. For H-(Hyp)9-OH [Peptide 5], the “cytotoxic effect of peptides (MTT test)” value was “No cytotoxic effect”.

Same assay, conditions: EA.h 926 cells; 10 mM peptide
With H-(Pro)9-OH [Peptide 3] the “cytotoxicity at the highest tested concentration (MTT)” value was “comparable toxicity to that at 100 μM”.
